These results are taken from patent publication US11307204B2, “5-ALA for detection of brain tumors” (PIOMA, INC., priority 2012, dated 2022).

This test concerns U87 cells. Put plainly: Flow cytometry detection of PPIX in U87 cells exposed to 5-ALA. It counts as cell-based. As to conditions: serum-free, 5-ALA 250 μg/ml, excitation 406 nm, filter 610/20. On the procedure:
U87 cells representative of GBM tumors grown in T-75 flasks, in the absence of serum, were exposed to 5-aminolevulinic acid ([…]; 250 μg/ml) for 4 or 24 hours. Following exposure, cells were subjected to fluorescent excitation in a LSRII flow cytometer with an excitation at 406 nm violet wave length. Filter specifications were set at either 450/50, or set at 610/20 for the detection of protoporphyrin IX (PPIX).

With `NCC(=O)CCC(=O)O` [5-ALA, 5-aminolevulinic acid], the “mean fluorescence index (MFI), PPIX” value by setting is: (4 hours) “MFI increased”; (24 hours) “MFI increased”.
